Source: PubChem BioAssay AID330 (DTP/NCI, 2004)
Values joined by “and” are separate entries in the source; they are usually repeats but may differ in a detail not shown here. Equal values may be shown once. Inconclusive results and toxic doses are left out.

System: P388 leukemia ip, CD2F1 mice, survival T/C
Experiment: NCI In Vivo Anticancer Drug Screen. Data for tumor model P388 Leukemia (intraperitoneal) in CD2F1 (CDF1) mice
Settings: endpoint: median survival time, higher = longer survival
Procedure, shortened: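 Mice carrying the transplanted tumor received test compound or vehicle. Survival was recorded in each group, and the value is the treated-group measurement divided by that of the vehicle-treated control group.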

[1] = dose: 60.0 mg/kg/injection, schedule: Q01DX005 (ip), vehicle: saline with Tween-80
[2] = dose: 120.0 mg/kg/injection, schedule: Q01DX005 (ip), vehicle: saline with Tween-80
[3] = dose: 240.0 mg/kg/injection, schedule: Q01DX005 (ip), vehicle: saline with Tween-80
[4] = dose: 50.0 mg/kg/injection, schedule: Q01DX005 (ip), vehicle: saline with Tween-80
[5] = dose: 100.0 mg/kg/injection, schedule: Q01DX005 (ip), vehicle: saline with Tween-80
[6] = dose: 200.0 mg/kg/injection, schedule: Q01DX005 (ip), vehicle: saline with Tween-80
[7] = dose: 50.0 mg/kg/injection, schedule: Q01DX005 (ip), vehicle: Klucel (hydroxypropylcellulose) (HPC)
[8] = dose: 100.0 mg/kg/injection, schedule: Q01DX005 (ip), vehicle: Klucel (hydroxypropylcellulose) (HPC)
[9] = dose: 200.0 mg/kg/injection, schedule: Q01DX005 (ip), vehicle: Klucel (hydroxypropylcellulose) (HPC)
[10] = dose: 50.0 mg/kg/injection, schedule: Q01DX009 (ip), vehicle: saline with Tween-80
[11] = dose: 100.0 mg/kg/injection, schedule: Q01DX009 (ip), vehicle: saline with Tween-80
[12] = dose: 200.0 mg/kg/injection, schedule: Q01DX009 (ip), vehicle: saline with Tween-80
[13] = dose: 400.0 mg/kg/injection, schedule: Q01DX009 (ip), vehicle: saline with Tween-80
[14] = dose: 50.0 mg/kg/injection, schedule: Q01DX009 (ip), vehicle: Klucel (hydroxypropylcellulose) (HPC)
[15] = dose: 100.0 mg/kg/injection, schedule: Q01DX009 (ip), vehicle: Klucel (hydroxypropylcellulose) (HPC)
[16] = dose: 200.0 mg/kg/injection, schedule: Q01DX009 (ip), vehicle: Klucel (hydroxypropylcellulose) (HPC)
[17] = dose: 60.0 mg/kg/injection, schedule: Q01DX005 (ip), vehicle: Klucel (hydroxypropylcellulose) (HPC)
[18] = dose: 120.0 mg/kg/injection, schedule: Q01DX005 (ip), vehicle: Klucel (hydroxypropylcellulose) (HPC)

For `C=C(C)OC1NC(=O)Oc2ccccc21` (centres undefined), the T/C [1] was 98 % of control, the T/C [2] was 109 % of control and the T/C [3] was 100 % of control.
In the case of `CC(=O)C1=C(O)C(=O)N(c2ccccc2)C1=O`, the T/C [4] is reported as 97 % of control, the T/C [5] is reported as 102 % of control and the T/C [6] is reported as 100 % of control.
In the case of `CC(C)(C)N1C(=O)NCS1(=O)=O`, the T/C [7] is reported as 100 % of control, the T/C [8] is reported as 100 % of control and the T/C [9] is reported as 115 % of control.
With `Cc1ncc([N+](=O)[O-])n1CCO` the T/C (dose: 16.0 mg/kg/injection, schedule: Q01DX009 (ip), vehicle: saline with Tween-80) was 112 % of control, the T/C (dose: 32.0 mg/kg/injection, schedule: Q01DX009 (ip), vehicle: saline with Tween-80) was 108 % of control and the T/C [10] was 98 % of control. For the same compound, the T/C (dose: 64.0 mg/kg/injection, schedule: Q01DX009 (ip), vehicle: saline with Tween-80) was 102 % of control and 108 % of control, the T/C [11] was 118 % of control and the T/C (dose: 128.0 mg/kg/injection, schedule: Q01DX009 (ip), vehicle: saline with Tween-80) was 100 % of control and 109 % of control. For the same compound, the T/C [12] was 107 % of control, the T/C (dose: 250.0 mg/kg/injection, schedule: Q01DX001 (ip), vehicle: saline with Tween-80) was 103 % of control and the T/C (dose: 256.0 mg/kg/injection, schedule: Q01DX009 (ip), vehicle: saline with Tween-80) was 108 % of control. For the same compound, the T/C (dose: 360.0 mg/kg/injection, schedule: Q01DX001 (ip), vehicle: saline with Tween-80) was 100 % of control and 103 % of control, the T/C [13] was 111 % of control and the T/C (dose: 500.0 mg/kg/injection, schedule: Q01DX001 (ip), vehicle: saline with Tween-80) was 103 % of control. The T/C (dose: 512.0 mg/kg/injection, schedule: Q01DX009 (ip), vehicle: saline with Tween-80) was 100 % of control, the T/C (dose: 600.0 mg/kg/injection, schedule: Q01DX001 (ip), vehicle: saline with Tween-80) was 100 % of control and 97 % of control and the T/C (dose: 1000.0 mg/kg/injection, schedule: Q01DX001 (ip), vehicle: saline with Tween-80) was 102 % of control and 104 % of control and 101 % of control. For the same compound, the T/C (dose: 2000.0 mg/kg/injection, schedule: Q01DX001 (ip), vehicle: saline with Tween-80) was 99 % of control.
For `FC(F)(F)c1cccc(CSCc2c(CSCc3cccc(C(F)(F)F)c3)c(CSCc3cccc(C(F)(F)F)c3)c(CSCc3cccc(C(F)(F)F)c3)c(CSCc3cccc(C(F)(F)F)c3)c2CSCc2cccc(C(F)(F)F)c2)c1`, the T/C [10] was 104 % of control, the T/C [11] was 98 % of control and the T/C [12] was 97 % of control.
`CC1c2ccccc2OS(=O)N1C` (centres undefined) was tested, and the T/C [14] was 104 % of control, the T/C [15] was 110 % of control and the T/C [16] was 111 % of control.
For `NC(=O)c1[nH]cnc1NN=NCCF`, the T/C (dose: 0.39 mg/kg/injection, schedule: Q01DX009 (ip), vehicle: distilled water + Tween-80) was 116 % of control and 122 % of control, the T/C (dose: 0.78 mg/kg/injection, schedule: Q01DX009 (ip), vehicle: distilled water + Tween-80) was 116 % of control and the T/C (dose: 1.56 mg/kg/injection, schedule: Q01DX009 (ip), vehicle: distilled water + Tween-80) was 150 % of control. The T/C (dose: 3.13 mg/kg/injection, schedule: Q01DX009 (ip), vehicle: distilled water + Tween-80) was 179 % of control and the T/C (dose: 6.25 mg/kg/injection, schedule: Q01DX009 (ip), vehicle: distilled water + Tween-80) was 175 % of control.
For `C(=N\n1cnnc1)/c1ccccc1/C=N/n1cnnc1`, the T/C [11] was 100 % of control, the T/C [12] was 90 % of control and the T/C [13] was 100 % of control.
For `NC(=S)c1cccc(C2Nc3ccccc3O2)c1` (centres undefined), the T/C [10] was 94 % of control, the T/C [11] was 104 % of control and the T/C [12] was 104 % of control.
`O=S(=O)(O)/[N+]([O-])=N/O` was tested, and the T/C (dose: 100.0 mg/kg/injection, schedule: Q04DX003 (ip), vehicle: saline) was 100 % of control, the T/C (dose: 200.0 mg/kg/injection, schedule: Q04DX003 (ip), vehicle: saline) was 100 % of control and the T/C (dose: 400.0 mg/kg/injection, schedule: Q04DX003 (ip), vehicle: saline) was 100 % of control.
In the case of `O=C1CC(O)C(Cc2ccccc2)N1` (centres undefined), the T/C [4] is reported as 97 % of control, the T/C [5] is reported as 98 % of control and the T/C [6] is reported as 97 % of control.
`CC(Cl)CN(CC(C)Cl)c1ccc2c(c1)Cc1ccccc1-2` (centres undefined) was tested, and the T/C [14] was 122 % of control and the T/C [15] was 112 % of control.
With `c1ccc2cc(N3CCOCC3)ccc2c1` the T/C [11] was 116 % of control, the T/C [12] was 119 % of control and the T/C [13] was 116 % of control.
`Cn1c(=O)oc2cc(C(=O)CN3CCN(c4cccc(C(F)(F)F)c4)CC3)ccc21` was tested, and the T/C [17] was 92 % of control and the T/C [18] was 93 % of control.
`C=C(Cl)C(=NC(C)(C)C)Nc1ccccc1Cl` was tested, and the T/C (dose: 6.25 mg/kg/injection, schedule: Q01DX005 (ip), vehicle: saline) was 100 % of control, the T/C (dose: 12.5 mg/kg/injection, schedule: Q01DX005 (ip), vehicle: saline) was 117 % of control and the T/C (dose: 25.0 mg/kg/injection, schedule: Q01DX005 (ip), vehicle: saline) was 124 % of control. For the same compound, the T/C (dose: 50.0 mg/kg/injection, schedule: Q01DX005 (ip), vehicle: saline) was 114 % of control and 120 % of control and the T/C (dose: 100.0 mg/kg/injection, schedule: Q01DX005 (ip), vehicle: saline) was 118 % of control.
`C/C=C(\C)[C@H](O)C(COCc1ccccc1)NS(=O)(=O)c1ccc(C)cc1` (some centres undefined) was tested, and the T/C [17] was 100 % of control, the T/C [18] was 100 % of control and the T/C (dose: 240.0 mg/kg/injection, schedule: Q01DX005 (ip), vehicle: Klucel (hydroxypropylcellulose) (HPC)) was 92 % of control.
In the case of `CCC(O)(c1ccccc1)C(O)c1ccccc1` (centres undefined), the T/C (dose: 25.0 mg/kg/injection, schedule: Q01DX009 (ip), vehicle: Klucel (hydroxypropylcellulose) (HPC)) is reported as 98 % of control, the T/C [14] is reported as 98 % of control and the T/C (dose: 50.0 mg/kg/injection, schedule: Q01DX009 (ip), vehicle: saline + alcohol) is reported as 102 % of control and 124 % of control. The T/C [15] was 97 % of control, the T/C (dose: 100.0 mg/kg/injection, schedule: Q01DX009 (ip), vehicle: saline + alcohol) was 99 % of control and 123 % of control and the T/C [16] was 88 % of control. The T/C (dose: 200.0 mg/kg/injection, schedule: Q01DX009 (ip), vehicle: saline + alcohol) was 98 % of control and the T/C (dose: 400.0 mg/kg/injection, schedule: Q01DX009 (ip), vehicle: Klucel (hydroxypropylcellulose) (HPC)) was 96 % of control.
`S=C(NCCc1ccccc1)N/N=C/c1ccc(Cl)cc1` was tested, and the T/C [7] was 104 % of control and the T/C [8] was 100 % of control.
`COc1ccc2[nH]c3c(C)c4ccn5c(=O)c6ccccc6cc5c4c(C)c3c2c1` was tested, and the T/C (dose: 0.1 mg/kg/injection, schedule: Q04DX003 (ip), vehicle: distilled water + Tween-80) was 87 % of control, the T/C (dose: 0.2 mg/kg/injection, schedule: Q04DX003 (ip), vehicle: distilled water + Tween-80) was 100 % of control and the T/C (dose: 0.4 mg/kg/injection, schedule: Q04DX003 (ip), vehicle: distilled water + Tween-80) was 91 % of control. The T/C (dose: 0.78 mg/kg/injection, schedule: Q04DX003 (ip), vehicle: distilled water + Tween-80) was 87 % of control, the T/C (dose: 0.8 mg/kg/injection, schedule: Q04DX003 (ip), vehicle: distilled water + Tween-80) was 92 % of control and the T/C (dose: 200.0 mg/kg/injection, schedule: Q04DX003 (ip), vehicle: distilled water + Tween-80) was 91 % of control.
With `COc1ccc(/C=C/c2ccnnc2)c(OC)c1OC` the T/C (dose: 25.0 mg/kg/injection, schedule: Q01DX009 (ip), vehicle: saline) was 102 % of control, the T/C (dose: 50.0 mg/kg/injection, schedule: Q01DX009 (ip), vehicle: saline) was 102 % of control and the T/C (dose: 100.0 mg/kg/injection, schedule: Q01DX009 (ip), vehicle: saline) was 105 % of control.
In the case of `CCN(CC)CCNC(=O)c1cc(Cl)c(N)cc1OC`, the T/C (dose: 3.12 mg/kg/injection, schedule: Q01DX005 (ip), vehicle: water) is reported as 100 % of control and 105 % of control, the T/C (dose: 6.25 mg/kg/injection, schedule: Q01DX005 (ip), vehicle: water) is reported as 108 % of control and 95 % of control and the T/C (dose: 12.5 mg/kg/injection, schedule: Q01DX005 (ip), vehicle: water) is reported as 104 % of control and 105 % of control. For the same compound, the T/C (dose: 25.0 mg/kg/injection, schedule: Q01DX005 (ip), vehicle: water) was 104 % of control and 107 % of control, the T/C (dose: 50.0 mg/kg/injection, schedule: Q01DX005 (ip), vehicle: water) was 103 % of control and 111 % of control and 122 % of control and the T/C (dose: 100.0 mg/kg/injection, schedule: Q01DX005 (ip), vehicle: water) was 100 % of control and 106 % of control and 117 % of control.
With `S=C(S)NC1CCN(Cc2ccccc2)CC1` the T/C [7] was 107 % of control, the T/C [8] was 102 % of control and the T/C [9] was 96 % of control.
With `COc1ccc(/C=C2/C(=O)ON=C2C)cc1` the T/C [1] was 108 % of control, the T/C [2] was 110 % of control and the T/C [3] was 109 % of control.
